From patent US20140221414A1 (priority 2009, published 2014)
Values after ≈ are worked out from the molar mass of the structure shown. Where two headings read alike, the source gives them in different places.

Key:
[1] = oral 400 mg, healthy volunteers, cited from earlier work
[2] = physchem; format: physicochemical; conditions: thermodynamic from solid
Excerpt: Another embodiment relates to various methods for screening and analyzing methods and preparations that are intended to enhance the dissolution of poorly soluble drugs. These analysis methods include dissolution studies, saturation solubility studies, wettability studies, permeation studies, X-ray diffraction studies etc.

[3] = tested on: MDCK (Mardin Darby Canine Kidney Cells) cells; assay: Permeability study using MDCK cells in transwell plates; format: in vitro ADME; conditions: 10 μmolar apical, 37° C., 2 hours
Protocol: Three well are to be used per sample. Plates are placed in shaking water bath at 37° C. for 2 hours. Take out 20 μl from apical and 100 μl from basolateral side for sample processing at […]. Lucifer Yellow is used as a marker to see the monolayer integrity of the cells. Propronalol is used as a permeability marker.
Relative area in apical remain 100% even after 2 hours.

[4] = tested on: E. Coli; assay: Anti-microbial activity by cup plate / well plate method (zone of inhibition); format: cell-based; conditions: 200 μl per well, 37° C., 24 hrs
Protocol: The measurement of zone diameters estimates the susceptibility of bacteria to antimicrobial compounds.
Prepare a nutrient agar medium in distilled water and sterilize this media in autoclave at 121° C. for 15 min. Transfer this media aseptically in sterile petriplate, allow the media to solidify for few minutes. After solidification, add test micro-organism i.e. E. Coli (100 μl) in each plate and spread this culture with the help of spreader. Prepare the well in plate with the help of borer.

[5] = tested on: Campylobacter jejuni; conditions: cited from earlier work
[6] = tested on: Escherichia coli Enteroaggregative; conditions: 75 strains; cited from earlier work
[7] = tested on: Escherichia coli Enterotoxigenic; conditions: 97 strains; cited from earlier work
[8] = tested on: Helicobacter pylori; conditions: 40 strains; MIC50 instead of MIC90; cited from earlier work
[9] = tested on: Salmonella species; conditions: 46 strains; cited from earlier work
[10] = tested on: Shigella species; conditions: 36 strains; cited from earlier work
[11] = tested on: Vibrio cholerae; conditions: 403 strains; cited from earlier work
[12] = tested on: Yersinia enterocolitica; conditions: 74 strains; cited from earlier work
[13] = tested on: Other; conditions: 21 strains; cited from earlier work

Structure (SMILES) | dose recovered in feces ([1]; almost entirely as unchanged drug) | dose recovered in the urine [1] [%] | solubility ([2]; pH 6.8, aqueous buffer) [µg/mL] | solubility ([2]; water) [µg/mL] | amount found in the basolateral side of the transwell (apparent permeability) [3] | area of zone of inhibition [4] | MIC90 ([5]; 9 strains) [µg/mL] | MIC90 ([5]; 54 strains) [µg/mL] | MIC90 [6] [µg/mL] | MIC90 [7] [µg/mL] | MIC50 [8] | MIC90 [9] [µg/mL] | MIC90 [10] [µg/mL] | MIC90 [11] [µg/mL] | MIC90 [12] [µg/mL] | MIC90 [13] [µg/mL]
CO[C@H]1/C=C/O[C@@]2(C)Oc3c(C)c(O)c4c(O)c(c5c(nc6cc(C)ccn65)c4c3C2=O)NC(=O)/C(C)=C\C=C\[C@H](C)[C@H](O)[C@@H](C)[C@@H](O)[C@@H](C)[C@H](OC(C)=O)[C@@H]1C [14C-rifaximin] | approximately 97% | 0.32 |  |  |  |  |  |  |  |  |  |  |  |  |  | 
CO[C@H]1/C=C/O[C@@]2(C)Oc3c(C)c(O)c4c(O)c(c5c(nc6cc(C)ccn65)c4c3C2=O)NC(=O)/C(C)=C\C=C\[C@H](C)[C@H](O)[C@@H](C)[C@@H](O)[C@@H](C)[C@H](OC(C)=O)[C@@H]1C [rifaximin] |  |  | 10 (≈ 12.7 µM) | < 10 | No detectable amount | very negligible | 32 (≈ 40.7 µM) | 128 (≈ 163 µM) | 32 (≈ 40.7 µM) | 32 (≈ 40.7 µM) | 4 (MIC50) μg/ml | 64 (≈ 81.4 µM) | 64 (≈ 81.4 µM) | 4 (≈ 5.09 µM) | 16 (≈ 20.4 µM) | 4 (≈ 5.09 µM)
